Reference: US20100317607A1, “USE OF COMPOUNDS FOR PREPARING ANTI-TUBERCULOSIS AGENTS” (INFECTIOUS DISEASE RESEARCH INSTITUTE, priority 2007, published 2010)
In brackets after ≈: the same amount, converted by molar mass. Counter-ions that a name gives are not always drawn.

Test system: H37Rv strain of M. tuberculosis
Experiment: Alamar Blue Susceptibility Test (MABA)
Assay type: cell-based
Conditions: H37Rv strain of M. tuberculosis, Alamar Blue; for MIC: Mycobacterium tuberculosis, read-out: MABA (TB growth inhibition, colourimetric assay)

Row | SMILES | MIC | MABA (TB growth inhibition, colourimetric assay)
1 | CC(C)(Nc1nc(N2CCCC2)nc2ccccc12)c1ccccc1 [Compound 91, N-(2-Phenylpropan-2-yl)-2-(pyrrolidin-1-yl)quinazolin-4-amine] | 10 to 50 µM (≈ 3.32 to 16.6 µg/mL) | 
2 | COC(=O)[C@@H]1CCCN1c1nc(NCc2ccccc2)c2ccccc2n1 [Compound 180, (S)-Methyl 1-(4-(benzylamino)quinazolin-2-yl)pyrrolidine-2-carboxylate] | 50 to 128 µM (≈ 18.1 to 46.4 µg/mL) | 
3 | Fc1ccc(CNc2nc(N3CCC(F)(F)CC3)nc3ccccc23)cc1 [Compound 137, 2-(4,4-Difluoropiperidin-1-yl)-N-(4-fluorobenzyl)quinazolin-4-amine] | 10 to 50 µM (≈ 3.72 to 18.6 µg/mL) | 
4 | Cc1ccc(CNc2nc(NCc3ccccc3)c3ccccc3n2)cc1 [Compound 28, N^4-Benzyl-N^2-(4-methylbenzyl)quinazoline-2,4-diamine] | 10 to 50 µM (≈ 3.54 to 17.7 µg/mL) | 
5 | c1ccc(CNc2nc(N3CCNCC3)nc3ccccc23)cc1 [Compound 51, N-Benzyl-2-(piperazin-1-yl)quinazolin-4-amine] | 50 to 128 µM (≈ 16 to 40.9 µg/mL) | 
6 | FC1(F)CCN(c2nc(NCc3ccc(C(F)(F)F)o3)c3ccccc3n2)CC1 [Compound 161, 2-(4,4-Difluoropiperidin-1-yl)-N-((5-(trifluoromethyl)furan-2-yl)methyl)quinazolin-4-amine hydrochloride] | 10 to 50 µM | 
7 | c1ccc2c(c1)CC(Nc1nc(N3CCCCC3)nc3ccccc13)C2 [Compound 86, N-(2,3-Dihydro-1H-inden-2-yl)-2-(piperidin-1-yl)quinazolin-4-amine hydrochloride] | 10 to 50 µM | 
8 | c1ccc(C2(Nc3nc(N4CCCCC4)nc4ccccc34)CC2)cc1 [Compound 122, N-(1-Phenylcyclopropyl)-2-(piperidin-1-yl)quinazolin-4-amine] | 10 to 50 µM (≈ 3.44 to 17.2 µg/mL) | 
9 | FC1(F)CCN(c2nc(NCc3ccc(Cl)cc3)nc3ccccc23)CC1 [Compound 146, N-(4-Chlorobenzyl)-4-(4,4-difluoropiperidin-1-yl)quinazolin-2-amine hydrochloride] | 10 to 50 µM | 
10 | c1ccc(N2CCN(c3nc(N4CCCCC4)nc4ccccc34)CC2)cc1 [Compound 88, 4-(4-Phenylpiperazin-1-yl)-2-(piperidin-1-yl)quinazoline] | 50 to 128 µM (≈ 18.7 to 47.8 µg/mL) | 
11 | COC[C@@H]1CCCN1c1nc(NCc2ccc(F)cc2)c2ccccc2n1 [Compound 199, (S)—N-(4-Fluorobenzyl)-2-(2-(methoxymethyl)pyrrolidin-1-yl)quinazolin-4-amine] | 10 to 50 µM (≈ 3.66 to 18.3 µg/mL) | 
12 | c1ccc(CNc2nc(N3CCCCC3)nc3ccccc23)nc1 [Compound 46, 2-(Piperidin-1-yl)-N-(pyridin-2-ylmethyl)quinazolin-4-amine] | 50 to 128 µM (≈ 16 to 40.9 µg/mL) | 
13 | Fc1ccc(CNc2nc(NC3(c4ccc(F)cc4)CC3)c3ccccc3n2)cc1 [Compound 154, N^2-(4-Fluorobenzyl)-N^4-(1-(4-fluorophenyl)cyclopropyl)quinazoline-2,4-diamine] | < 10 µM | 
14 | Nc1nc(N2CCCCC2)nc2ccccc12 [compound 1, 2-(Piperidin-1-yl)quinazolin-4-amine, reference compound] |  | −
15 | COc1cc2c(cc1OC)CN(c1nc(NCc3ccccc3)c3ccccc3n1)CC2 [Compound 181, N-Benzyl-2-(6,7-dimethoxy-3,4-dihydroisoquinolin-2(1H)-yl)quinazolin-4-amine] | 10 to 50 µM (≈ 4.27 to 21.3 µg/mL) | 
16 | COC(=O)[C@@H](Nc1nc(N2CCCCC2)nc2ccccc12)c1ccccc1 [Compound 175, (S)-Methyl 2-phenyl-2-(2-(piperidin-1-yl)quinazolin-4-ylamino)acetate] | 10 to 50 µM (≈ 3.76 to 18.8 µg/mL) | 
17 | Fc1ccc(CNc2nc(NCc3ccc(F)cc3)c3ccc(F)cc3n2)cc1 [Compound 157, 7-Fluoro-N^2, N^4-bis(4-fluorobenzyl)quinazoline-2,4-diamine] | < 10 µM | 
18 | COCCNc1nc(NCc2ccc(F)cc2)c2ccccc2n1 [Compound 207, N^4-(4-Fluorobenzyl)-N^2-(2-methoxyethyl)quinazoline-2,4-diamine] | 50 to 128 µM (≈ 16.3 to 41.8 µg/mL) | 
19 | c1csc(CNc2nc(N3CCCC3)nc3ccccc23)c1 [Compound 187, 2-(Pyrrolidin-1-yl)-N-(thiophen-2-ylmethyl)quinazolin-4-amine] | 10 to 50 µM (≈ 3.1 to 15.5 µg/mL) | 
20 | Fc1ccc(CNc2nc(N3CCCCC3)nc3cc(F)ccc23)cc1 [Compound 155, 7-Fluoro-N-(4-fluorobenzyl)-2-(piperidin-1-yl)quinazolin-4-amine] | < 10 µM | 
21 | COc1ccc(CNc2nc(NCc3ccccc3)c3ccccc3n2)cc1 [Compound 129, N^4-Benzyl-N^2-(4-methoxybenzyl)quinazoline-2,4-diamine hydrochloride] | 10 to 50 µM | 
22 | c1ccc(C2(Nc3nc(N4CCCC4)nc4ccccc34)CCCCC2)cc1 [Compound 125, N-(1-Phenylcyclohexyl)-2-(pyrrolidin-1-yl)quinazolin-4-amine] | 50 to 128 µM (≈ 18.6 to 47.7 µg/mL) | 
23 | Fc1ccc(CNc2nc(N3CCCC3)nc3ccccc23)cc1 [Compound 172, N-(4-Fluorobenzyl)-2-(pyrrolidin-1-yl)quinazolin-4-amine] | < 10 µM | 
24 | FC(F)(F)c1ccc(CNc2nc(N3CCCCC3)c3ccccc3n2)cc1 [Compound 109, 4-(Piperidin-1-yl)-N-(4-(trifluoromethyl)benzyl)quinazolin-2-amine hydrochloride] | 10 to 50 µM | 

Row | SMILES | MIC | MABA (TB growth inhibition, colourimetric assay)
25 | Nc1nc(NCc2ccccc2)c2ccccc2n1 [compound 3, N^4-Benzylquinazoline-2,4-diamine, reference compound] | 50 to 128 µM (≈ 12.5 to 32 µg/mL) | 
26 | O=C(c1ccccc1)N1CCN(c2nc(NCc3ccc(F)cc3)c3ccccc3n2)CC1 [Compound 204, (4-(4-(4-Fluorobenzylamino)quinazolin-2-yl)piperazin-1-yl)(phenyl)methanone] | 50 to 128 µM (≈ 22.1 to 56.5 µg/mL) | 
27 | Clc1ccc(N2CCN(c3nc(N4CCCCC4)nc4ccccc34)CC2)cc1 [Compound 89, 4-(4-(4-Chlorophenyl)piperazin-1-yl)-2-(piperidin-1-yl)quinazoline] | 10 to 50 µM (≈ 4.08 to 20.4 µg/mL) | 
28 | FC1(F)CCN(c2nc(NCc3ccc(C(F)(F)F)cc3)nc3ccccc23)CC1 [Compound 147, 4-(4,4-Difluoropiperidin-1-yl)-N-(4-(trifluoromethyl)benzyl)quinazolin-2-amine] | < 10 µM | 
29 | Cc1ccc(CCNc2nc(N3CCCCC3)nc3ccccc23)cc1 [Compound 87, N-(4-Methylphenethyl)-2-(piperidin-1-yl)quinazolin-4-amine hydrochloride] | 10 to 50 µM | 
30 | Fc1ccc(CNc2nc(NCc3ccc(F)cc3)c3sccc3n2)cc1 [Compound 166, N^2,N^4-bis(4-Fluorobenzyl)thieno[3,2-d]pyrimidine-2,4-diamine] | 10 to 50 µM (≈ 3.82 to 19.1 µg/mL) | 
31 | COC(=O)[C@H](Cc1ccccc1)Nc1nc(N2CCCCC2)nc2ccccc12 [Compound 176, (S)-Methyl 3-phenyl-2-(2-(piperidin-1-yl)quinazolin-4-ylamino)propanoate] | 50 to 128 µM (≈ 19.5 to 50 µg/mL) | 
32 | Cc1ccc(CNc2nc(NCc3ccc(F)cc3)c3ccccc3n2)o1 [Compound 170, N^4-(4-Fluorobenzyl)-N^2-((5-methylfuran-2-yl)methyl)quinazoline-2,4-diamine] | 10 to 50 µM (≈ 3.62 to 18.1 µg/mL) | 
33 | CCOC(=O)CN1CCN(c2nc(NCc3ccccc3)c3ccccc3n2)CC1 [Compound 27, Ethyl 2-(4-(4-(benzylamino)quinazolin-2-yl)piperazin-1-yl)acetate] | 50 to 128 µM (≈ 20.3 to 51.9 µg/mL) | 
34 | Fc1ccc(CNc2nc(NCc3cc4ccccc4s3)nc3ccccc23)cc1 [Compound 171, N^2-(Benzo[b]thiophen-2-ylmethyl)-N^4-(4-fluorobenzyl)quinazoline-2,4-diamine] | 10 to 50 µM (≈ 4.15 to 20.7 µg/mL) | 
35 | Fc1ccc(CNc2nc(N3CCCC3)nc3ncccc23)cc1 [Compound 173, N-(4-Fluorobenzyl)-2-(pyrrolidin-1-yl)pyrido[2,3-d]pyrimidin-4-amine] | 10 to 50 µM (≈ 3.23 to 16.2 µg/mL) | 
36 | CC(C)C(=O)N1CCN(c2nc(NCc3ccccc3)c3ccccc3n2)CC1 [Compound 56, 1-(4-(4-(Benzylamino)quinazolin-2-yl)piperazin-1-yl)-2-methylpropan-1-one] | 50 to 128 µM (≈ 19.5 to 49.9 µg/mL) | 
37 | c1ccc2c(c1)CN(c1nc(N3CCCCC3)nc3ccccc13)C2 [Compound 85, 4-(Isoindolin-2-yl)-2-(piperidin-1-yl)quinazoline hydrochloride] | 10 to 50 µM | 
38 | Cc1ccc(CNc2nc(NCc3ccc(F)cc3)nc3ccccc23)o1 [Compound 158, N^2-(4-Fluorobenzyl)-N^4-((5-methylfuran-2-yl)methyl)quinazoline-2,4-diamine hydrochloride] | 10 to 50 µM | 
39 | COC[C@@H]1CCCN1c1nc(NCc2ccccc2)c2ccccc2n1 [Compound 178, (S)—N-Benzyl-2-(2-(methoxymethyl)pyrrolidin-1-yl)quinazolin-4-amine] | 50 to 128 µM (≈ 17.4 to 44.6 µg/mL) | 
40 | O=C(c1ccccc1)N1CCN(c2nc(NCc3ccccc3)c3ccccc3n2)CC1 [Compound 58, 1-(4-(4-(Benzylamino)quinazolin-2-yl)piperazin-1-yl)(phenyl)methanone] | 10 to 50 µM (≈ 4.24 to 21.2 µg/mL) | 
41 | Fc1ccc(CNc2nc(NCc3ccc(C(F)(F)F)o3)c3ccccc3n2)cc1 [Compound 159, N^2-(4-Fluorobenzyl)-N4-((5-(trifluoromethyl)furan-2-yl)methyl)quinazoline-2,4-diamine hydrochloride] | < 10 µM | 
42 | Fc1ccc(CNc2nc(N3CCCCC3)c3ccccc3n2)cc1 [Compound 111, N-(4-Fluorobenzyl)-4-(piperidin-1-yl)quinazolin-2-amine hydrochloride] | 10 to 50 µM | 
43 | COc1cc2nc(N3CCCCC3)nc(NCc3ccc(F)cc3)c2cc1OC [Compound 150, N-(4-Fluorobenzyl)-6,7-dimethoxy-2-(piperidin-1-yl)quinazolin-4-amine hydrochloride] | 10 to 50 µM | 
44 | CCOC(=O)CNc1nc(NCc2ccc(F)cc2)c2ccccc2n1 [Compound 206, Ethyl 2-(4-(4-fluorobenzylamino)quinazolin-2-ylamino)acetate hydrochloride] | 50 to 128 µM | 
45 | CCS(=O)(=O)N1CCN(c2nc(NCc3ccccc3)c3ccccc3n2)CC1 [Compound 26, N-Benzyl-2-(4-(ethylsulfonyl)piperazin-1-yl)quinazolin-4-amine] | 50 to 128 µM (≈ 20.6 to 52.7 µg/mL) | 
46 | c1ccc2c(CNc3nc(N4CCCCC4)nc4ccccc34)ccnc2c1 [Compound 195, 2-(Piperidin-1-yl)-N-(quinolin-4-ylmethyl)quinazolin-4-amine] | 10 to 50 µM (≈ 3.69 to 18.5 µg/mL) | 
47 | c1ccc2c(NCc3ccoc3)nc(N3CCCCC3)nc2c1 [Compound 190, N-(Furan-3-ylmethyl)-2-(piperidin-1-yl)quinazolin-4-amine] | 10 to 50 µM (≈ 3.08 to 15.4 µg/mL) | 
